The text below walks through data of PubChem BioAssay AID463204 (Broad Institute, 2010).

The test system of the experiment is S. cerevisiae Mot1-301 ts growth rescue, BacTiter-Glo ATP luminescence. Briefly: growth rescue of Mot1-301 ts yeast, confirmation, SUMOylation pathway inhibitor project, whole organism, S. cerevisiae, Mot1-301 ts mutant, luminescence, dose retest (AID 463204).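 Further: growth at restrictive 38.5 degrees C of Mot1-301 OY566 strain; actives raise luminescence by restoring growth of the ts mutant at high temperature.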

Active and inactive are the calls of the source.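 How the source made its calls: active means AC50 no more than ten times the top concentration tested, that is within one log above it; inconclusive means flat curve fit with activity between 30% and 70%, or invalid poor fit; inactive means AC50 beyond ten times the top tested dose.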

Consider `COc1ccc2cc3c(N)nn(C(=O)c4ccccc4Cl)c3nc2c1`, for which the AC50 (as a rule, the concentration giving half of the maximal activity seen) is > 42 µM (inactive).

With `CN(C(=O)c1ccncc1)c1nnc(-c2cnccn2)s1`, the AC50 is > 42 µM (inactive).

As to `O=C(Nc1ccc2c(c1)oc1ccccc12)C1CC1`, the AC50 is > 42 µM (inactive).

As to `CC1(C)Oc2ccc3ccc(=O)oc3c2/C(=C/Nc2ccc(O)cc2)C1=O`, the AC50 is > 42 µM (inactive).

In the case of `O=C(CCCC(=O)N/N=C/c1ccccc1C(=O)O)N/N=C/c1ccccc1C(=O)O`, the AC50 is > 42 µM (inactive).

Regarding `O=S(=O)(Nc1ccc(N2CCOCC2)cc1)c1cccs1`, the AC50 was > 42 µM (inactive).

`CN(C)c1ccc2nc3ccc(=[N+](C)C)cc-3sc2c1`: the AC50 is > 42 µM (inactive).

Regarding `CC1(C)CNc2cc([N+](=O)[O-])ccc2S1`, the concentration at half-maximal activity (AC50) is 27.7 µM.

`Cn1c(-c2sc3cc(C(F)(F)F)cnc3c2-c2cccs2)n[nH]c1=S`: the AC50 is > 42 µM (inactive).

`Oc1c(Cl)cc(Cl)c(Cl)c1Cc1c(O)c(Cl)cc(Cl)c1Cl`: the AC50 is 0.84 µM.

Regarding `COC(=O)c1cccc(NC(=O)c2ccc[n+]([O-])c2)c1`, the AC50 is > 42 µM (inactive).

Consider `CN1C(=S)SC2CS(=O)(=O)CC21C` (centres undefined), for which the AC50 is > 21 µM (inactive).

Consider `COc1cc(S(=O)(=O)N2CCN(c3ccccc3)CC2)ccc1F`, for which the AC50 is > 42 µM (inactive).

Turning to `COc1ccc(-n2nc(C(=O)NCC(=O)N3CCCC3)c3ccccc3c2=O)c(OC)c1`, the AC50 was > 42 µM (inactive).

Regarding `C/C(CC(=O)Nc1cccc(Cl)c1Cl)=N\NC(=O)c1ccccc1C`, the AC50 is > 42 µM (inactive).

As to `CCn1nnc(-c2ccccc2NC(=O)c2cnccn2)n1`, the AC50 is > 42 µM (inactive).

Consider `COCCCNCC(O)COc1cccc2[nH]c(C)cc12` (centres undefined), for which the AC50 was > 42 µM (inactive).

In the case of `COC(=O)[C@@]12CCCCN1[C@H](c1ccc(-c3ccc(C(C)=O)cc3)cc1)[C@@H]1C(=O)N(C)C(=O)[C@@H]12`, the AC50 was > 42 µM (inactive).

For `c1ccc2cc(Cn3ccnc3)ccc2c1`, the AC50 was > 42 µM (inactive).

With `O=C(O)Cc1sc(Nc2ccccc2)nc1-c1cccs1`, the AC50 is > 42 µM (inactive).

Regarding `CS(=O)(=O)c1ccc(Cl)c(C(=O)O)c1`, the AC50 is > 42 µM (inactive).

Take `CC1CN(S(=O)(=O)c2cccc(C(=O)N=c3sccn3C)c2)CC(C)O1` (centres undefined): the AC50 is > 42 µM (inactive).

In the case of `Cc1cc(Br)ccc1NC(=O)c1cnc(N2CCN(c3ccccn3)CC2)c2ccccc12`, the AC50 was > 42 µM (inactive).

With `O=C(CSc1nc(-c2ccccc2)cc(=O)[nH]1)Nc1ccc(Br)cc1`, the AC50 is > 42 µM (inactive).

Regarding `COc1ccc(NC(=O)CSc2nnc(-c3ccccn3)n2-c2ccccc2)cc1OC`, the AC50 is > 42 µM (inactive).

In the case of `CCc1ccccc1NC1c2ccccc2C(=O)N1c1cccnc1` (centres undefined), the AC50 was > 42 µM (inactive).

For the compound `CCC1=Nc2cc(C(=O)NCc3ccco3)ccc2Sc2ccccc21`, the AC50 was > 42 µM (inactive).

Consider `CCN(CC)C(=O)CSc1nnc(CNc2ccc(F)cc2)n1Cc1ccco1`, for which the AC50 is > 42 µM (inactive).

`CN(C)c1ccc(CN(Cc2ccco2)C(=O)c2ccco2)cc1`: the AC50 was > 42 µM (inactive).

Regarding `O=C(COC(=O)/C=C/c1ccco1)Nc1ncc(C(F)(F)F)cc1Cl`, the AC50 is > 42 µM (inactive).

Turning to `CC(C)(C)c1ccc(CN(Cc2ccccc2)C(c2ccccn2)c2nnnn2C(C)(C)C)cc1` (centres undefined), the AC50 is > 42 µM (inactive).

Take `Cc1cc(-c2ccccc2)n(-c2ccc(C(=O)NC(C)C)cc2)n1`: the AC50 is > 42 µM (inactive).

Take `C/C(=N\NC(=O)c1cccc(N/N=C(\C)c2ccc([N+](=O)[O-])cc2)c1)c1ccc([N+](=O)[O-])cc1`: the AC50 is > 42 µM (inactive).

On to `N[C@@H](Cc1ccc(O)c(I)c1)C(=O)O`, for which the AC50 is > 42 µM (inactive).

Turning to `CCOc1ccc(NS(=O)(=O)c2ccc(C(=O)NCc3cccnc3)cc2)cc1`, the AC50 was > 42 µM (inactive).

Turning to `O=S(=O)(Cc1ccccc1)N1CCN(c2ccccc2)CC1`, the AC50 is > 42 µM (inactive).

Consider `O=c1[nH]c(CN2CCN(CCO)CC2)nc2ccccc12`, for which the AC50 was > 42 µM (inactive).

As for `CCC1CCCCN1C(=O)CSc1nc2c([nH]c3ccccc32)c(=O)n1C` (centres undefined), the AC50 is > 42 µM (inactive).

Turning to `Cc1cc(C(=O)N/N=C/c2ccc3c(c2)OCO3)c2ccccc2n1`, the AC50 was > 42 µM (inactive).

Take `CCn1c(SCC(=O)OC)nnc1-c1ccncc1`: the AC50 was > 42 µM (inactive).

Turning to `CC(=O)N(C(C)=O)c1c(C#N)c(C)n(-c2ccccc2)c1C(=O)c1ccccc1`, the AC50 was 20.4 µM.

As to `CC(=O)N/C(=C\c1ccccc1)C(=O)OCC(=O)c1ccccc1`, the AC50 was > 42 µM (inactive).

Take `CN(CC(=O)Nc1cccc(F)c1)CC(=O)Nc1cccc(S(N)(=O)=O)c1`: the AC50 was > 110 µM (inactive).

`CCN(CC)c1ccc(/C=N/NC(=O)OC(C)(C)C)cc1`: the AC50 is > 42 µM (inactive).

For `COCCn1c(SCc2ccc(Cl)cc2)nc2c1c(=O)[nH]c(=O)n2C`, the AC50 was > 42 µM (inactive).

Consider `O=C(Nc1nnc(-c2ccco2)o1)c1ccc(S(=O)(=O)N2CCCC2)cc1`, for which the AC50 is > 42 µM (inactive).

As for `O=C(CCNC(=O)c1ccc(Br)cc1)NCc1ccccc1F`, the AC50 was > 42 µM (inactive).

Turning to `Cc1cnc(NC(=O)CN2CCN(c3ccccc3F)CC2)s1`, the AC50 is > 42 µM (inactive).

With `O=C(NCc1nc(-c2ccccc2)no1)c1cccs1`, the AC50 was > 42 µM (inactive).

Take `O=C1CC(=O)C(n2cncn2)C(c2ccc(Cl)cc2Cl)C1` (centres undefined): the AC50 was > 42 µM (inactive).

As to `Cc1ccnc(NC(=O)c2ccc(Br)s2)c1`, the AC50 was > 42 µM (inactive).

On to `Cc1sc(NC(=O)c2ccc(F)cc2)c(CN2CCCCCC2)c1C`, for which the AC50 is > 42 µM (inactive).

For `CCN(CC)C1CCN(C(=O)c2cc(COc3ccc(-n4cncn4)cc3)on2)C1` (centres undefined), the AC50 was > 42 µM (inactive).

As to `O=C(NNC(=O)c1ccccc1O)c1ccco1`, the AC50 is > 42 µM (inactive).

For `COc1cc2nc(CSc3ncn[nH]3)[nH]c(=O)c2cc1OC`, the AC50 is > 42 µM (inactive).

Turning to `N#Cc1ccc(C23CC4(C2)[C@H](CN(Cc2ccc(C(F)(F)F)cc2)[C@@H]4c2ccccc2)C3c2ccc(C(F)(F)F)cc2)cc1` (some centres undefined), the AC50 was > 42 µM (inactive).

In the case of `CN(C)CCOC(c1ccc(Cl)cc1)c1ccccn1` (centres undefined), the AC50 was > 42 µM (inactive).

For the compound `CCCOC(=O)c1c(NC(=O)/C=C/c2cnn(C)c2C)sc(C(=O)OC)c1C`, the AC50 was > 42 µM (inactive).

Take `O=C(c1cc2c(ccc3ccccc32)oc1=O)N1CCCC1`: the AC50 is > 42 µM (inactive).

For the compound `Cc1cc([N+](=O)[O-])ccc1NC(=O)CSc1nccc(=O)[nH]1`, the AC50 is > 42 µM (inactive).

As for `O=C(c1ccc(COc2ccccc2Cl)o1)N1N=C(C(F)F)CC1(O)C(F)F` (centres undefined), the AC50 was > 42 µM (inactive).

With `COc1cc(NC(=O)CN2CCN(CC(=O)Nc3ccccc3OC)CC2)cc(OC)c1`, the AC50 was > 42 µM (inactive).

For `c1ccc2nc3c(nc2c1)OCC1CCCCN31` (centres undefined), the AC50 is > 42 µM (inactive).

Regarding `CN(C(=O)CSc1nnc(-c2cccc(F)c2)n1N)C1CCS(=O)(=O)C1` (centres undefined), the AC50 was > 42 µM (inactive).

Turning to `O=c1oc2cc(S(=O)(=O)NCCCO)ccc2c2ccc(S(=O)(=O)NCCCO)cc12`, the AC50 was > 42 µM (inactive).

On to `COc1ccc(C2C(C(C)=O)=C(O)C(=O)N2CCO)c(OC)c1` (centres undefined), for which the AC50 was > 42 µM (inactive).

As for `C=CSc1sc(Cl)c(N(C)C)c1[N+](=O)[O-]`, the AC50 is > 42 µM (inactive).

For `CC1CCCCC1N=CC1=C(O)CC(C)(C)CC1=O` (centres undefined), the AC50 was > 42 µM (inactive).

`COC/C=C/C1=CC2=CC(=O)C(C)(OC(=O)c3cnc4ccccc4n3)C(=O)C2=CN1CCOC` (centres undefined): the AC50 was > 42 µM (inactive).

`C/C(=N\NC(=O)Cc1csc(N2CCOCC2)n1)c1ccccc1`: the AC50 is > 42 µM (inactive).

Regarding `CCOc1cc(C(N)=O)cc(Cl)c1OCc1ccccc1`, the AC50 was > 42 µM (inactive).

`COc1ccc(-c2oc3ccc(-c4cc(OC)c(OC)c(OC)c4)cc3c2C(=O)c2ccc(OC)nc2)cc1`: the AC50 is > 42 µM (inactive).

Regarding `O=C(CSc1nnc(CNC(=O)c2ccccc2)o1)NCc1ccco1`, the AC50 is > 42 µM (inactive).

As for `COc1ccc2[nH]cc(CCNS(=O)(=O)c3ccc(C)cc3)c2c1`, the AC50 was > 42 µM (inactive).

For the compound `Cc1cc(-c2nnc3sc(C4CCCCC4)nn23)n[nH]1`, the AC50 is > 42 µM (inactive).

Turning to `O=C(Cn1nc(C(F)(F)F)c2c1CCCC2)N1CCOCC1`, the AC50 is > 42 µM (inactive).

As to `Cc1nc2ccc(S(=O)(=O)NC(CC(C)C)C(=O)O)cc2s1` (centres undefined), the AC50 was > 42 µM (inactive).

As for `COc1ccccc1CC(=O)N1CCOCC1`, the AC50 is > 42 µM (inactive).

For the compound `CCOc1ccc(N2CC(C(=O)OC)CC2=O)cc1` (centres undefined), the AC50 is > 42 µM (inactive).

As to `CCCCCCCCCCOC(=O)Cn1c(COc2ccc(OC)cc2)[n+](C)c2ccccc21`, the AC50 was 6.72 µM.

With `Cc1cc(C)nc(SCC2COc3ccccc3O2)n1` (centres undefined), the AC50 was > 42 µM (inactive).

As for `COc1ccc(C(C)=O)cc1CN(c1ccccc1OC)S(=O)(=O)c1cccs1`, the AC50 is > 42 µM (inactive).

As to `COc1ccc(OC)c2c(N)c(C#N)c(C(F)(F)C(F)(F)F)nc12`, the AC50 is > 42 µM (inactive).

For `O=C1CCN(Cc2ccccc2)CCN1CCOc1ccccc1`, the AC50 was > 42 µM (inactive).

As to `COc1cc(/C=N/NC(=S)NCc2ccco2)cc(OC)c1OC`, the AC50 is > 42 µM (inactive).

Consider `Cc1cc(C)n(-c2nc(-c3cccc(Cl)c3)cs2)n1`, for which the AC50 is > 42 µM (inactive).

For `CCC(C)NCCCCOc1cc(C)cc(C(C)C)c1` (centres undefined), the AC50 is > 42 µM (inactive).

Take `CCOc1cc(C(=S)N2CCOCC2)ccc1OC(=O)c1ccc(C)cc1`: the AC50 is > 42 µM (inactive).

With `Cc1cc(NC(=O)c2ccc3c(c2)C(=O)N(C(C)(C)C)C3=O)no1`, the AC50 is > 42 µM (inactive).
